According to publication PMC9572513, “Novel Unsymmetric 3,5-Bis(benzylidene)-4-piperidones That Display Tumor-Selective Toxicity” (Molecules, 2022):
Counter-ions that a name gives are not always drawn. Like-named read-outs stand apart in the source and are kept apart here.

Key:
[1] = system: human oral squamous carcinoma; design: method as in PMID 32858984, PMID 31892556; details: cited from earlier work
[2] = system: CEM cells; experiment: Mitochondrial membrane potential in CEM cells (JC-1, flow cytometry); assay type: cell-based, human; details: 7 h
Method: The effect on the mitochondrial membrane potential in CEM cells was undertaken using a published method. In brief, the cells were incubated with different compounds for 7 h. The cells were then stained with the JC-1 dye, and the samples were examined by flow cytometry. The results are portrayed in Figure 6C.

[3] = system: CRL1790 non-malignant colon cells; experiment: Cytotoxicity against CRL1790 non-malignant colon cells; assay type: cell-based; details: Homo sapiens, 48 h
Method: (§1) The culture medium was supplemented with 10% heat-inactivated fetal bovine serum (FBS) and 1% penicillin–streptomycin antibiotics. The time of the bioassays was 48 h. The determinations were undertaken in triplicate on three different occasions.

[4] = system: HSC-4 squamous cell carcinoma cells; experiment: MTT cytotoxicity against HSC-4 squamous cell carcinoma; assay type: cell-based, human; details: for CC50: Homo sapiens, HSC-4, 48 h, MTT, read-out: HSC-4 CC50; for HSC-4 SI: average CC50 HGF/HPLF/HPC divided by CC50 HSC-4
Method: (§2) The method for evaluating 2a–f and 3a–e against human oral squamous cell carcinoma (OSCC) cell lines (Ca9-22, HSC-2, HSC-3, HSC-4) and human non-malignant oral cells [human gingival fibroblast (HGF), human periodontal ligament fibroblast (HPLF), and human pulp cell (HPC)] have been reported previously, except the length of time of this bioassay was extended from 24 h to 48 h. In brief, different quantities of the compounds were incubated with the cells in Dulbecco’s modified eagle medium (DMEM), which was supplemented with 10% FBS and antibiotics. The cell viability was determined by the 3-(4,5-dimethylthiazol-2-yl)-2,5-diphenyl-2H-tetrazolium bromide (MTT) method as summarized previously (Figure 4).

[5] = MTT cytotoxicity against human pulp cell (HPC); assay type: cell-based; details: human, human pulp cells (HPC), non-malignant oral cells
Method: as §2

[6] = system: Ca9-22 cells; experiment: Western blot for caspase 3 activation in Ca9-22 cells; assay type: cell-based, human; details: 3 μM, 24 h
Method: (§3) Apoptosis induction in Ca9-22 cells was evaluated by cell cycle analysis and Western blot analysis as described previously (Figure 5). Briefly, for the cell cycle analysis, cells were treated for 24 h with the test samples. Cells were then fixed, digested with RNase A, stained with propidium iodide, filtered through Falcon® cell trainers (Corning Inc., Corning, NY, USA), and then subjected to cell sorting. For the Western blot, cell lysates (equivalent to 5 µg protein) were applied to SDS-polyacrylamide gel electrophoresis. A literature method was used to determine whether representative compounds led to increases in the production of ROS [29]. In brief, CEM cells were treated with the compounds overnight, then with 6-carboxy-2′,7′-dichlorodihydrofluorescein diacetate (carboxy-H2DCFDA) and the samples were processed using flow cytometry.

[7] = system: HCT116 and HT29 colon cancer cells; experiment: Average over HCT116 and HT29 colon cancer cells; assay type: cell-based, human; details: for IC50: Homo sapiens, average of HCT116 and HT29, unit printed only for the single cell-line columns; for Average SI: average of SI for HCT116 and HT29; for PSE (potency-selectivity expression): reciprocal of average IC50 x average SI x 100, colon cells
Method: as §1

[8] = system: HSC-2 squamous cell carcinoma cells; experiment: MTT cytotoxicity against HSC-2 squamous cell carcinoma; assay type: cell-based, human; details: for CC50: Homo sapiens, HSC-2, 48 h, MTT, read-out: HSC-2 CC50; for HSC-2 SI: average CC50 HGF/HPLF/HPC divided by CC50 HSC-2
Method: as §2

[9] = system: CEM cells; experiment: Annexin V-FITC apoptosis assay in CEM cells; assay type: cell-based, human; details: CC50 and twice the CC50 concentrations, 24 h
Method: In order to discover if representative compounds induce apoptosis, the annexin V-FITC assay was used. In brief, CEM cells were treated with various compounds for 24 h. The cells were collected and stained with propidium iodide and annexin V-FITC.

[10] = system: CEM cells; experiment: ROS production in CEM cells (carboxy-H2DCFDA, flow cytometry); assay type: cell-based, human; details: CC50 and twice the CC50 concentrations
Method: as §3

[11] = system: HCT116 colon cancer cells; experiment: Cytotoxicity against HCT116 colon cancer cells; assay type: cell-based, human; details: for IC50: 48 h; for HCT116 SI (selectivity index): IC50 CRL1790 / IC50 HCT116
Method: as §1

[12] = Average over HGF, HPLF and HPC non-malignant oral cells; assay type: cell-based, human; details: human, HPLF and HPC non-malignant oral cells (average), average of HGF
Method: as §2

[13] = system: HSC-3 squamous cell carcinoma cells; experiment: MTT cytotoxicity against HSC-3 squamous cell carcinoma; assay type: cell-based, human; details: for CC50: Homo sapiens, HSC-3, 48 h, MTT, read-out: HSC-3 CC50; for HSC-3 SI: average CC50 HGF/HPLF/HPC divided by CC50 HSC-3
Method: as §2

[14] = system: Ca9-22 squamous cell carcinoma cells; experiment: MTT cytotoxicity against Ca9-22 squamous cell carcinoma; assay type: cell-based, human; details: for CC50: Homo sapiens, Ca9-22, 48 h, MTT, read-out: Ca9-22 CC50; for Ca9-22 SI: average CC50 HGF/HPLF/HPC divided by CC50 Ca9-22
Method: as §2

[15] = system: Ca9-22, HSC-2, HSC-3, and HSC-4 squamous cell carcinoma cell lines; experiment: Average over Ca9-22, HSC-2, HSC-3 and HSC-4 OSCC cell lines; assay type: cell-based, human; details: for CC50: average of four OSCC cell lines, read-out: Average CC50; for Average SI: average of SI for four OSCC cell lines; for PSE (potency-selectivity expression): reciprocal of average CC50 (OSCC) x average SI x 100
Method: as §2

[16] = MTT cytotoxicity against human gingival fibroblast (HGF); assay type: cell-based; details: human, human gingival fibroblasts (HGF), non-malignant oral cells
Method: as §2

[17] = system: CEM cells; experiment: Differential DNA staining (DNS) cytotoxicity assay, CEM cells; assay type: cell-based; details: Homo sapiens, CCRF-CEM
Method: (§4) The method used for generating the data of human acute lymphocytic leukemia (CEM) and human acute promyelocytic leukemia (HL-60) cells in Table 4 has been described previously. In brief, the cells were cultured in media supplemented with 10% FBS and antibiotics. […] The CC50 values of the compounds listed in Table 4 were obtained by linear interpolation equations [28, 29].

[18] = MTT cytotoxicity against human periodontal ligament fibroblast (HPLF); assay type: cell-based; details: human, human periodontal ligament fibroblasts (HPLF), non-malignant oral cells
Method: as §2

[19] = system: HL-60 cells; experiment: Differential DNA staining (DNS) cytotoxicity assay, HL-60 cells; assay type: cell-based; details: Homo sapiens
Method: as §4

[20] = system: HT29 colon cancer cells; experiment: Cytotoxicity against HT29 colon cancer cells; assay type: cell-based, human; details: for IC50: 48 h; for HT29 SI (selectivity index): IC50 CRL1790 / IC50 HT29
Method: as §1

[21] = 24 h, read-out: CC50 CEM Cells 24 h
[22] = 48 h, read-out: CC50 CEM Cells 48 h
[23] = HL-60, 24 h, read-out: CC50 HL-60 Cells 24 h
[24] = HL-60, 48 h, read-out: CC50 HL-60 Cells 48 h

SMILES	IC50 [7] [µM]	IC50 [3] [µM]	CC50 [4] [µM]	HSC-4 SI [4]	CC50 at 48 h [5] [µM]	Average SI [7]	PSE (potency-selectivity expression) [7]	CC50 [8] [µM]	HSC-2 SI [8]	CC50 at 48 h [12] [µM]	CC50 [13] [µM]	HSC-3 SI [13]	CC50 [14] [µM]	Ca9-22 SI [14]	CC50 ([15]; Homo sapiens) [µM]	CC50 at 48 h [16] [µM]	CC50 [17, 21] [µM]	CC50 [17, 22] [µM]	CC50 at 48 h [18] [µM]	CC50 [19, 23] [µM]	also measured
COc1ccc2c(=O)c(/C=C/c3ccc(O)cc3)coc2c1 [3-[(1E)-2-(4-hydroxyphenyl)ethenyl]-7-methoxy-4H-1-benzopyran-4-one]	–	–	–	–	–	–	–	–	–	–	–	–	–	–	–	–	–	–	–	–	SI (tumor specificity) [1]: 182
COc1ccc2c(=O)c(/C=C/c3ccccc3)coc2c1 [7-methoxy-3-[(1E)-2-phenylethenyl]-4H-1-benzopyran-4-one]	–	–	–	–	–	–	–	–	–	–	–	–	–	–	–	–	–	–	–	–	SI (tumor specificity) [1]: 301
COc1ccc(C=C2CNCC(=Cc3ccc(O)c(CN(C)C)c3)C2=O)cc1OC.Cl.Cl [Compound 2a, 3-(3,4-Dimethoxybenzylidene)-5-(3-((dimethylamino)methyl)-4-hydroxybenzylidene)-4-piperidone dihydrochloride]	1.77	17.5 ± 0.58	1.39	5.56	2.3	9.91	560	1.2	6.44	7.73	1.06	7.29	0.68	11.4	1.08	15.9	1.64 ± 0.68	0.82 ± 0.02	5	1.99 ± 0.92	depolarization of the mitochondrial membrane potential [2]: induced; caspase 3 activation (cleavage of PARP and procaspase) [6]: induced; apoptotic cells [9]: approximately 30%; ROS generation [10]: generate ROS; IC50 ([11]; Homo sapiens, HCT-116, 48 h): 1.73 ± 0.48 µM; HCT116 SI (selectivity index) [11]: 10.1; Average SI [15]: 7.67; CC50 [19, 24]: 2.21 ± 0.37 µM; IC50 ([20]; Homo sapiens, HT-29, 48 h): 1.8 ± 1.24 µM; HT29 SI (selectivity index) [20]: 9.72
COc1ccc(/C=C2\CNC/C(=C\c3ccc(O)c(CN4CCN(C)CC4)c3)C2=O)cc1OC [Compound 2f, 3-[3-(4-Methyl-1-piperazinylmethyl)-4-hydroxybenzylidene]-5-(3,4-dimethoxybenzylidene)-4-piperidone trihydrochloride]	0.72	12.7 ± 0.31	2.73	6.26	6.1	17.7	2458	2.8	6.11	17.1	2.47	6.92	1.94	8.81	2.49	33.1	8.91 ± 1.32	2.89 ± 0.2	12	3.75 ± 1.07	IC50 [11]: 0.68 ± 0.31 µM; IC50 ([11]; Homo sapiens, HCT-116, 48 h): < 1 µM; HCT116 SI (selectivity index) [11]: 18.7; Average SI [15]: 7.03; CC50 [19, 24]: 2.73 ± 0.57 µM; IC50 [20]: 0.76 ± 0.3 µM; IC50 ([20]; Homo sapiens, HT-29, 48 h): < 1 µM; HT29 SI (selectivity index) [20]: 16.7

The next lines start with results.

IC50 [7] [µM]	SMILES	IC50 [3] [µM]	CC50 [4] [µM]	HSC-4 SI [4]	CC50 at 48 h [5] [µM]	Average SI [7]	PSE (potency-selectivity expression) [7]	CC50 [8] [µM]	HSC-2 SI [8]	CC50 at 48 h [12] [µM]	CC50 [13] [µM]	HSC-3 SI [13]	CC50 [14] [µM]	Ca9-22 SI [14]	CC50 ([15]; Homo sapiens) [µM]	CC50 at 48 h [16] [µM]	CC50 [17, 21] [µM]	CC50 [17, 22] [µM]	CC50 at 48 h [18] [µM]	CC50 [19, 23] [µM]	also measured
0.37	CN1CCN(Cc2cc(/C=C3\CNC/C(=C\c4ccccc4)C3=O)ccc2O)CC1 [Compound 3a]	21.7 ± 0.25	0.71	8.21	2.6	60.1	16,243	0.67	8.70	5.83	0.49	11.9	0.43	13.6	< 1	10.2	3.06 ± 0.08	3.32 ± 0.3	4.7	8.27 ± 0.4	depolarization of the mitochondrial membrane potential [2]: induced; caspase 3 activation (cleavage of PARP and procaspase) [6]: induced; apoptotic cells [9]: approximately 30%; ROS generation [10]: generate ROS; CC50 [15]: 0.58 µM; PSE (potency-selectivity expression) [15]: > 1000; CC50 [19, 24]: 1.67 ± 0.54 µM
0.27	CN1CCN(Cc2cc(/C=C3\CNC/C(=C\c4ccc(F)cc4)C3=O)ccc2O)CC1 [Compound 3b]	12.6 ± 0.24	1.14	8.86	4.3	46.8	17,333	0.91	11.1	10.1	0.95	10.6	0.55	18.4	< 1	18.5	3.15 ± 1.29	0.4 ± 0.03	7.4	5.9 ± 0.76	HCT116 SI (selectivity index) [11]: 45.0; CC50 [15]: 0.89 µM; PSE (potency-selectivity expression) [15]: > 1000; CC50 [19, 24]: 2.65 ± 0.43 µM; HT29 SI (selectivity index) [20]: 48.5
0.33	CN1CCN(Cc2cc(/C=C3\CNC/C(=C\c4ccc([N+](=O)[O-])cc4)C3=O)ccc2O)CC1 [Compound 3e]	15.8 ± 0.27	0.6	9.50	1.9	48.0	14,546	0.58	9.83	5.7	0.47	12.1	0.33	17.3	< 1	12.5	0.76 ± 0.15	0.83 ± 0.03	2.7	4.11	depolarization of the mitochondrial membrane potential [2]: induced; caspase 3 activation (cleavage of PARP and procaspase) [6]: induced; apoptotic cells [9]: approximately 30%; ROS generation [10]: generate ROS; HCT116 SI (selectivity index) [11]: 46.5; CC50 [15]: 0.5 µM; CC50 [19, 24]: 6.63 ± 0.68 µM; HT29 SI (selectivity index) [20]: 49.4
